# Source: US10363257B2 (ZENITH EPIGENETICS LTD., priority 2013, dated 2019)
# Key:
# [1] = system: human AML MV-4-11 cells; assay: Inhibition of cell proliferation in MV4-11 cells (CellTiter Aqueous One); assay type: cell-based; settings: MV4-11, 72 h
# How it was run: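 IC50 values come from blank-corrected proliferation relative to DMSO controls, read as 490 nm absorbance 3–4 h after CellTiter Aqueous One addition. Before that, cells seeded at 5×10^4/well were exposed for 72 h (37° C, 5% CO2) to triplicate two-fold compound dilutions spanning 30–0.2 μM.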
# [2] = system: c-myc; assay: Inhibition of c-myc expression (mRNA, real-time PCR) in MV4-11 cells; assay type: cell-based; settings: Human AML MV4-11 cells, 3 h, cMYC mRNA
# How it was run: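 One-step TaqMan qPCR of cMYC, normalized to an internal control with Cyclophilin probes run, gave fold expression versus DMSO (0.1%) control. Samples: triplicate MV4-11 wells exposed 3 h at 37° C to rising compound concentrations in IMDM with 10% FBS.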
# [3] = target: T1, Brd4 bromodomain 1 (BRD4(1)) (Homo sapiens, UniProt O60885); assay: Inhibition of tetra-acetylated histone H4 binding to Brd4 bromodomain 1 (TR-FRET); settings: tetra-acetylated histone H4 peptide, first bromodomain of Brd4
# T1 construct: made in house; host or cells: E. coli BL21(DE3)
# How it was run: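 Serially diluted compound (0.2% DMSO) incubated 2 h at room temperature with 200 nM N-His BRD4 bromodomain 1 and 25-50 nM biotinylated tetra-acetyl H4 peptide, detected via Eu-streptavidin/XL665 anti-His. Loss of 665 nm relative to 620 nm signal gave IC50 from dose-response.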
# [4] = system: hIL-6 mRNA; assay: Inhibition of hIL-6 mRNA transcription in LPS-stimulated U937 cells; assay type: cell-based; settings: Homo sapiens, U-937; PMA-differentiated U937 cells, 1 h pretreatment, 1 ug/mL LPS stimulation, 3 h; read-out: IL-6 activity (Inhibition of hIL-6 mRNA Transcription)
# Experimental: In this example, hIL-6 mRNA in tissue culture cells was quantitated to measure the transcriptional inhibition of hIL-6 when treated with a compound of the invention.
# Human leukemic monocyte lymphoma U937 cells (CRL-1593.2) were plated at a density of 3.2×10^4 cells per well in a 96-well plate in 100 μL RPMI-1640 containing 10% FBS and penicillin/streptomycin, and differentiated into macrophages for 3 days in 60 ng/mL PMA ([…]) at 37° C. in 5% CO2 prior to the addition of compound. The cells were pretreated for 1 h with increasing concentrations of test compound in 0.1% DMSO prior to stimulation with 1 ug/mL lipopolysaccharide from Escherichia coli. Triplicate wells were used for each concentration. The cells were incubated at 37° C., 5% CO2 for 3 h before the cells were harvested. At time of harvest, media was removed and cells were rinsed in 200 μL PBS. Cells were harvested using the mRNA Catcher PLUS kit according to manufacturer's instructions. The eluted mRNA was then used in a one-step quantitative real-time PCR reaction using components of the RNA UltraSense™ One-Step Kit (Life Technologies) together with Applied Biosystems TaqMan® primer-probes for hIL-6 and Cyclophilin. Real-time PCR plates were run on a VIa™ 7 real time PCR machine (Applied Biosystems), data was analyzed, normalizing the Ct values for hIL-6 to an internal control, prior to determining the fold expression of each sample, relative to the control.
SMILES,IC50 [1] [nM],IC50 [2] [nM],IC50 [3] [nM],IC50 [4] [nM]
"Cc1noc(C)c1-c1cc([N+](=O)[O-])c2nc(NCc3cccnc3)n(Cc3ccccc3)c2c1 [compound 148, 1-benzyl-6-(3,5-dimethylisoxazol-4-yl)-4-nitro-N-(pyridin-3-ylmethyl)-1H-benzo[d]imidazol-2-amine]",300 to 3000,300 to 3000,≤ 300,≤ 300
"CNc1nc2c(N)cc(-c3c(C)noc3C)cc2n1Cc1ccccc1 [compound 151, 1-benzyl-6-(3,5-dimethylisoxazol-4-yl)-N2-methyl-1H-benzo[d]imidazole-2,4-diamine]",≤ 300,≤ 300,≤ 300,≤ 300
"Cc1noc(C)c1-c1cnc2cnn(Cc3ccc(Cl)cc3)c2c1 [compound 93, 4-(1-(4-chlorobenzyl)-1H-pyrazolo[4,3-b]pyridin-6-yl)-3,5-dimethylisoxazole]",3000 to 30000,3000 to 30000,≤ 300,300 to 3000
"Cc1nc2c(N)cc(-c3ccnn3C)cc2n1Cc1ccccc1 [compound 94, 1-benzyl-2-methyl-6-(1-methyl-1H-pyrazol-5-yl)-1H-benzo[d]imidazol-4-amine]",300 to 3000,300 to 3000,≤ 300,300 to 3000
"CCNc1nc2ncc(-c3c(C)noc3C)cc2n1C(C)c1ccccc1 (stereo not shown) [compound 113, 6-(3,5-dimethylisoxazol-4-yl)-N-ethyl-1-(1-phenylethyl)-1H-imidazo[4,5-b]pyridin-2-amine]",≤ 300,≤ 300,≤ 300,≤ 300
"CCNc1nc2ncc(-c3c(C)noc3C)cc2n1CC1CC1 [compound 131, 1-(cyclopropylmethyl)-6-(3,5-dimethylisoxazol-4-yl)-N-ethyl-1H-imidazo[4,5-b]pyridin-2-amine]",300 to 3000,300 to 3000,≤ 300,300 to 3000
"Cc1noc(C)c1-c1cc(N)c2nc(NCc3cccnc3)n(Cc3ccccc3)c2c1 [compound 157, 1-benzyl-6-(3,5-dimethylisoxazol-4-yl)-N2-(pyridin-3-ylmethyl)-1H-benzo[d]imidazole-2,4-diamine]",≤ 300,≤ 300,≤ 300,≤ 300
"Cc1noc(C)c1-c1cnc2[nH]c(=O)n([C@H](C)c3ccccc3)c2c1 [compound 218, (R)-6-(3,5-dimethylisoxazol-4-yl)-1-(1-phenylethyl)-1H-imidazo[4,5-b]pyridin-2(3H)-one]",3000 to 30000,300 to 3000,≤ 300,300 to 3000
"Cc1noc(C)c1-c1cc(N)c2cnn(Cc3ccccc3)c2c1 [Example Compound 54, 1-benzyl-6-(3,5-dimethylisoxazol-4-yl)-1H-indazol-4-amine]",300 to 3000,300 to 3000,≤ 300,300 to 3000
"Cc1noc(C)c1-c1cnc2c(C=O)cn(Cc3ccccc3)c2c1 [Example Compound 35, 1-benzyl-6-(3,5-dimethylisoxazol-4-yl)-1H-pyrrolo[3,2-b]pyridine-3-carbaldehyde]",300 to 3000,300 to 3000,≤ 300,300 to 3000
"Cc1noc(C)c1-c1cc(N)c2ccn(Cc3ccccc3)c2n1 [compound 73, 1-benzyl-6-(3,5-dimethylisoxazol-4-yl)-1H-pyrrolo[2,3-b]pyridin-4-amine]",3000 to 30000,3000 to 30000,300 to 3000,300 to 3000
"Cc1noc(C)c1-c1cnc2nc(C)n(Cc3ccc(Cl)s3)c2c1 [compound 77, 4-(1-((5-chlorothiophen-2-yl)methyl)-2-methyl-1H-imidazo[4,5-b]pyridin-6-yl)-3,5-dimethylisoxazole]",300 to 3000,300 to 3000,≤ 300,300 to 3000
"Cc1noc(C)c1-c1cc(N)c2nc(N3CCCC3)n(Cc3ccccc3)c2c1 [compound 140, 1-benzyl-6-(3,5-dimethylisoxazol-4-yl)-2-(pyrrolidin-1-yl)-1H-benzo[d]imidazol-4-amine]",≤ 300,≤ 300,≤ 300,≤ 300
"CNc1cc(-c2c(C)noc2C)cc2c1ncn2Cc1ccc(F)cc1 [Example Compound 28, 6-(3,5-dimethylisoxazol-4-yl)-1-(4-fluorobenzyl)-N-methyl-1H-benzo[d]imidazol-4-amine]",300 to 3000,300 to 3000,≤ 300,300 to 3000
"Cc1noc(C)c1-c1cnc2nc(N3CCOCC3)n(Cc3ccccc3)c2c1 [compound 114, 4-(1-benzyl-6-(3,5-dimethylisoxazol-4-yl)-1H-imidazo[4,5-b]pyridin-2-yl)morpholine]",300 to 3000,300 to 3000,≤ 300,300 to 3000
"Cc1noc(C)c1-c1ccc2c(c1)N(Cc1ccccc1)C(=O)NC2 [Example Compound 12, 1-Benzyl-7-(3,5-dimethylisoxazol-4-yl)-3,4-dihydroquinazolin-2(1H)-one]",300 to 3000,300 to 3000,≤ 300,300 to 3000
"CCNc1nc2c([N+](=O)[O-])cc(-c3c(C)noc3C)cc2n1C(C)c1ccccc1 (stereo not shown) [compound 127, 6-(3,5-dimethylisoxazol-4-yl)-N-ethyl-4-nitro-1-(1-phenylethyl)-1H-benzo[d]imidazol-2-amine]",≤ 300,≤ 300,≤ 300,≤ 300
"Cc1noc(C)c1-c1cnc2nc(C)n(Cc3ccc(O)cc3)c2c1 [compound 84, 4-((6-(3,5-dimethylisoxazol-4-yl)-2-methyl-1H-imidazo[4,5-b]pyridin-1-yl)methyl)phenol]",300 to 3000,300 to 3000,≤ 300,300 to 3000
"Cc1noc(C)c1-c1cnc2nc(N)n(Cc3ccccc3)c2c1 [compound 216, 1-benzyl-6-(3,5-dimethylisoxazol-4-yl)-1H-imidazo[4,5-b]pyridin-2-amine]",≤ 300,300 to 3000,≤ 300,≤ 300
"Cc1noc(C)c1-c1cnc2nc(C)n(Cc3ccncc3)c2c1 [compound 74, 3,5-dimethyl-4-(2-methyl-1-(pyridin-4-ylmethyl)-1H-imidazo[4,5-b]pyridin-6-yl)isoxazole]",3000 to 30000,3000 to 30000,300 to 3000,300 to 3000
"Cc1noc(C)c1-c1cnc2nc(NCCN3CCOCC3)n(Cc3ccccc3)c2c1 [compound 215, 1-benzyl-6-(3,5-dimethylisoxazol-4-yl)-N-(2-morpholinoethyl)-1H-imidazo[4,5-b]pyridin-2-amine]",300 to 3000,≤ 300,≤ 300,≤ 300
"Cc1noc(C)c1-c1cc(N)c2nc(N3CCOCC3)n(Cc3ccccc3)c2c1 [compound 87, 1-benzyl-6-(3,5-dimethylisoxazol-4-yl)-2-morpholino-1H-benzo[d]imidazol-4-amine]",≤ 300,≤ 300,≤ 300,≤ 300
"Cc1noc(C)c1-c1cnc2nc(NCc3ccccc3)n(Cc3ccccc3)c2c1 [compound 153, N,1-dibenzyl-6-(3,5-dimethylisoxazol-4-yl)-1H-imidazo[4,5-b]pyridin-2-amine]",≤ 300,≤ 300,≤ 300,≤ 300
"CCS(=O)(=O)Nc1cc(-c2c(C)noc2C)cc2c1nc(C)n2Cc1ccccc1 [Example Compound 65, N-(1-benzyl-6-(3,5-dimethylisoxazol-4-yl)-2-methyl-1H-benzo[d]imidazol-4-yl)ethanesulfonamide]",300 to 3000,300 to 3000,≤ 300,300 to 3000
"Cc1noc(C)c1-c1cnc2nc(NCc3cccc(C#N)c3)n(Cc3ccccc3)c2c1 [compound 217, 3-(((1-benzyl-6-(3,5-dimethylisoxazol-4-yl)-1H-imidazo[4,5-b]pyridin-2-yl)amino)methyl)benzonitrile]",300 to 3000,≤ 300,≤ 300,≤ 300
